Results published in the supplement of paper PMC13380429.

Legend:
[1] = system: A549-ACE2 infected with SARS-CoV-2; test: morphology score (similarity to uninfected cells); higher = more like uninfected cells; conditions: 24 h
A549-ACE2 [2] = test: drug-induced phospholipidosis relative to tamoxifen; higher = more phospholipidosis
Vero E6 [3] = test: relative viability EC50 (midpoint between 100% and the lowest measured viability); higher = less toxic; conditions: 72 h
U2OS [4] = test: as above; conditions: 72 h
HepG2 [5] = test: as above; conditions: 72 h
Calu-3 [6] = test: as above; conditions: 72 h
Caco-2 [7] = test: as above; conditions: 72 h
[8] = system: A549-ACE2 infected with SARS-CoV-2; test: cell count relative to DMSO; higher = less toxic; conditions: 24 h
[9] = system: A549-ACE2 infected with SARS-CoV-2; test: SARS-CoV-2 infection rate relative to DMSO; higher = more infection; conditions: 24 h
Vero E6 [10] = test: drug sensitivity score (DSS) for viability; higher = more toxic; extreme values may be limits of the assay; conditions: 72 h
U2OS [11] = test: as above; conditions: 72 h
HepG2 [12] = test: as above; conditions: 72 h
Calu-3 [13] = test: as above; conditions: 72 h
Caco-2 [14] = test: as above; conditions: 72 h
Vero E6 [15] = test: cell viability relative to DMSO; higher = less toxic; conditions: 72 h
U2OS [16] = test: as above; conditions: 72 h
HepG2 [17] = test: as above; conditions: 72 h
Calu-3 [18] = test: as above; conditions: 72 h
Caco-2 [19] = test: as above; conditions: 72 h
A549-ACE2 [20] = test: phospholipidosis EC50; higher = less potent phospholipidosis inducer

CC1(C)CC[C@]2(C(=O)O)CC[C@]3(C)[C@H](C(=O)C=C4[C@@]5(C)C=C(C#N)C(=O)C(C)(C)[C@@H]5CC[C@]43C)[C@@H]2C1 [bardoxolone]
Conditions | SARS-CoV-2 infection rate, [9] [%] | cell count, [8] [%] | cell viability, Caco-2 [19] [%] | cell viability, Calu-3 [18] [%] | cell viability, HepG2 [17] [%] | cell viability, U2OS [16] [%] | cell viability, Vero E6 [15] [%] | morphology score, [1]
1 nM | – | – | 91.3 | 102 | 98.2 | 101 | 101 | –
10 nM | – | – | 107 | 104 | 92.1 | 104 | 102 | –
0.1 µM | 97 | 101 | – | – | – | – | – | 0.07
100 nM | – | – | 78.1 | 102 | 89.7 | 102 | 111 | –
0.3 µM | 99 | 91 | – | – | – | – | – | -0.05
1 µM | 99 | 89 | – | – | – | – | – | -0.09
1000 nM | – | – | 83.8 | 92.5 | 62.8 | 72.3 | 104 | –
3 µM | 115 | 94 | – | – | – | – | – | -0.26
10000 nM | – | – | 82.9 | 15.5 | 5.4 | 12 | 18.3 | –

drug-induced phospholipidosis [%], A549-ACE2 [2]
Conditions | 0.3 µM | 0.833333 µM | 3.33333 µM | 6.66667 µM | 10 µM
24 h | -1.07 | -5.8 | 7.86 | 18.2 | -6.56
48 h | -3.77 | -7.72 | 1.1 | – | –
72 h | -2.71 | -7.17 | – | – | –

Conditions | drug sensitivity score | relative viability EC50 [µM]
Caco-2 [7] | – | > 10
Caco-2 [14] | 5.3 | –
Calu-3 [6] | – | 2.44
Calu-3 [13] | 5.9 | –
HepG2 [5] | – | 1.28
HepG2 [12] | 9.5 | –
U2OS [4] | – | 1.37
U2OS [11] | 8.9 | –
Vero E6 [3] | – | 3.43
Vero E6 [10] | 4.2 | –

CN1[C@@H]2CC[C@H]1C[C@@H](OC(c1ccccc1)c1ccccc1)C2 [benztropine-mesylate]
Conditions | SARS-CoV-2 infection rate [%] | cell count [%] | cell viability [%] | morphology score | phospholipidosis EC50 [µM]
A549-ACE2 [20], 24 h | – | – | – | – | 8.44
A549-ACE2 [20], 48 h | – | – | – | – | 9.6
A549-ACE2 [20], 72 h | – | – | – | – | 9.86
Caco-2 [19], 1 nM | – | – | 96.2 | – | –
Caco-2 [19], 10 nM | – | – | 98 | – | –
Caco-2 [19], 100 nM | – | – | 94.5 | – | –
Caco-2 [19], 1000 nM | – | – | 103 | – | –
Caco-2 [19], 10000 nM | – | – | 93 | – | –
Calu-3 [18], 1 nM | – | – | 101 | – | –
Calu-3 [18], 10 nM | – | – | 101 | – | –
Calu-3 [18], 100 nM | – | – | 109 | – | –
Calu-3 [18], 1000 nM | – | – | 116 | – | –
Calu-3 [18], 10000 nM | – | – | 94.2 | – | –
HepG2 [17], 1 nM | – | – | 103 | – | –
HepG2 [17], 10 nM | – | – | 102 | – | –
HepG2 [17], 100 nM | – | – | 103 | – | –
HepG2 [17], 1000 nM | – | – | 89 | – | –
HepG2 [17], 10000 nM | – | – | 92.1 | – | –
U2OS [16], 1 nM | – | – | 95.2 | – | –
U2OS [16], 10 nM | – | – | 98 | – | –
U2OS [16], 100 nM | – | – | 95.5 | – | –
U2OS [16], 1000 nM | – | – | 98.3 | – | –
U2OS [16], 10000 nM | – | – | 92.4 | – | –
Vero E6 [15], 1 nM | – | – | 99.4 | – | –
Vero E6 [15], 10 nM | – | – | 104 | – | –
Vero E6 [15], 100 nM | – | – | 103 | – | –
Vero E6 [15], 1000 nM | – | – | 97.5 | – | –
Vero E6 [15], 10000 nM | – | – | 93.8 | – | –
[1], 0.3 µM | – | – | – | -0.15 | –
[1], 3 µM | – | – | – | 0.67 | –
[1], 10 µM | – | – | – | 0.82 | –
[1], 30 µM | – | – | – | 0.71 | –
[8], 0.3 µM | – | 98 | – | – | –
[8], 3 µM | – | 112 | – | – | –
[8], 10 µM | – | 123 | – | – | –
[8], 30 µM | – | 120 | – | – | –
[9], 0.3 µM | 106 | – | – | – | –
[9], 3 µM | 60 | – | – | – | –
[9], 10 µM | 33 | – | – | – | –
[9], 30 µM | 12 | – | – | – | –

drug-induced phospholipidosis [%], A549-ACE2 [2]
Conditions | 0.3 µM | 0.833333 µM | 3.33333 µM | 6.66667 µM | 10 µM | 30 µM
24 h | 2.39 | -1.85 | 12.3 | 31.1 | 63.2 | 94.2
48 h | 3.49 | 2.96 | 8.82 | 25.8 | 58.8 | 103
72 h | 4.91 | 3.92 | 10.9 | 27.1 | 59.7 | 107

Conditions | drug sensitivity score | relative viability EC50 [µM]
Caco-2 [7] | – | > 10
Caco-2 [14] | 0 | –
Calu-3 [6] | – | > 10
Calu-3 [13] | 0 | –
HepG2 [5] | – | > 10
HepG2 [12] | 0.2 | –
U2OS [4] | – | > 10
U2OS [11] | 0 | –
Vero E6 [3] | – | > 10
Vero E6 [10] | 0 | –

O=C(OCC(O)CO)c1ccccc1Nc1ccnc2cc(Cl)ccc12 (stereo not given) [glafenine]
Conditions | SARS-CoV-2 infection rate, [9] [%] | cell count, [8] [%] | cell viability, Caco-2 [19] [%] | cell viability, Calu-3 [18] [%] | cell viability, HepG2 [17] [%] | cell viability, U2OS [16] [%] | cell viability, Vero E6 [15] [%] | morphology score, [1]
1 nM | – | – | 84.7 | 89.4 | 99.8 | 97.2 | 101 | –
10 nM | – | – | 95.9 | 100 | 81.1 | 102 | 90.5 | –
100 nM | – | – | 66.6 | 87.7 | 97.4 | 94.8 | 102 | –
0.3 µM | 94 | 103 | – | – | – | – | – | 0.2
1000 nM | – | – | 89.5 | 106 | 91 | 98.2 | 86.9 | –
3 µM | 88 | 85 | – | – | – | – | – | 0.28
10 µM | 97 | 115 | – | – | – | – | – | 0.42
10000 nM | – | – | 95.7 | 94 | 94.3 | 89 | 107 | –
30 µM | 53 | 104 | – | – | – | – | – | 0.74

drug-induced phospholipidosis [%], A549-ACE2 [2]
Conditions | 0.3 µM | 0.833333 µM | 3.33333 µM | 6.66667 µM | 10 µM | 30 µM
24 h | 0.74 | 1.36 | 2 | 1.93 | 2.17 | 23.8
48 h | 0.09 | -3.04 | 0.5 | 3.25 | 3.8 | 23.1
72 h | -1.15 | -3.87 | -2.67 | 0.336 | 3.93 | 30.1

Conditions | drug sensitivity score | relative viability EC50 [µM]
Caco-2 [7] | – | > 10
Caco-2 [14] | 0 | –
Calu-3 [6] | – | > 10
Calu-3 [13] | 0 | –
HepG2 [5] | – | > 10
HepG2 [12] | 0 | –
U2OS [4] | – | > 10
U2OS [11] | 0 | –
Vero E6 [3] | – | > 10
Vero E6 [10] | 0 | –

O=C1Cc2c([nH]c3ccc(Br)cc23)-c2ccccc2N1 [kenpaullone]
Conditions | SARS-CoV-2 infection rate, [9] [%] | cell count, [8] [%] | cell viability, Caco-2 [19] [%] | cell viability, Calu-3 [18] [%] | cell viability, HepG2 [17] [%] | cell viability, U2OS [16] [%] | cell viability, Vero E6 [15] [%] | morphology score, [1]
1 nM | – | – | 99.6 | 92.1 | 110 | 98.4 | 93.4 | –
10 nM | – | – | 93.2 | 95.1 | 96.2 | 98.9 | 93.6 | –
100 nM | – | – | 100 | 98.9 | 100 | 98.8 | 90.1 | –
0.3 µM | 106 | 103 | – | – | – | – | – | 0.06
1000 nM | – | – | 102 | 113 | 108 | 104 | 101 | –
3 µM | 96 | 100 | – | – | – | – | – | 0.37
10 µM | 94 | 85 | – | – | – | – | – | 0.47
10000 nM | – | – | 96 | 101 | 100 | 82.3 | 115 | –
30 µM | 88 | 67 | – | – | – | – | – | 0.48

drug-induced phospholipidosis [%], A549-ACE2 [2]
Conditions | 0.3 µM | 0.833333 µM | 3.33333 µM | 6.66667 µM | 10 µM | 30 µM
24 h | -0.53 | -1.07 | -1.23 | 1.24 | -0.93 | 4.23
48 h | 1.47 | -0.14 | 1.75 | 3.52 | 2.75 | 2.49
72 h | 2.92 | 0.874 | 5.13 | 6.52 | 5.66 | 9.54

Conditions | drug sensitivity score | relative viability EC50 [µM]
Caco-2 [7] | – | > 10
Caco-2 [14] | 0 | –
Calu-3 [6] | – | > 10
Calu-3 [13] | 0 | –
HepG2 [5] | – | > 10
HepG2 [12] | 0 | –
U2OS [4] | – | > 10
U2OS [11] | 0.3 | –
Vero E6 [3] | – | > 10
Vero E6 [10] | 0 | –
